The IC50 is the concentration at which inhibition is half-maximal. High values mean a need for much substance, low ones inhibition by little substance.

Data set [1] in a line: DRUGMATRIX: Serotonin (5-Hydroxytryptamine) 5-HT3 radioligand binding (ligand: [3H] GR-65630). Conditions: hek293; Not Active = under 50% inhibition at 10 µM. Format: cell membranes, Membrane.
Data set [2] in a line: DRUGMATRIX: GABAA, Muscimol, Central radioligand binding (ligand: [3H] Muscimol). Format: cell membranes, Rattus norvegicus, Wistar, Brain, Membrane. Conditions: Not Active = under 50% inhibition at 10 µM.
Data set [3] is described as follows: DRUGMATRIX: Leukotriene, BLT (LTB4) radioligand binding (ligand: [3H]LTB4). In kind it is cell membranes, Membrane. Conditions: u-937; Not Active = under 50% inhibition at 10 µM.
The nature of data set [4]: DRUGMATRIX: ATPase, Na+/K+ enzyme inhibition (substrate: ATP). Format: tissue-based, Sus scrofa, Heart. Conditions: Not Active = under 50% inhibition at 10 µM.
For the next data set, the target named is Cytochrome P450 2D6 (Homo sapiens, UniProt P10635). The settings on record: bti-tn-5b1-4. Further: in other assays of this panel Not Active means under 50% inhibition at 10 µM.
The target in data set [5] is T1, Muscarinic acetylcholine receptor M5 (Homo sapiens, UniProt P08912). Further: in other assays of this panel Not Active means under 50% inhibition at 10 µM.
T1 sequence (P08912 whole entry): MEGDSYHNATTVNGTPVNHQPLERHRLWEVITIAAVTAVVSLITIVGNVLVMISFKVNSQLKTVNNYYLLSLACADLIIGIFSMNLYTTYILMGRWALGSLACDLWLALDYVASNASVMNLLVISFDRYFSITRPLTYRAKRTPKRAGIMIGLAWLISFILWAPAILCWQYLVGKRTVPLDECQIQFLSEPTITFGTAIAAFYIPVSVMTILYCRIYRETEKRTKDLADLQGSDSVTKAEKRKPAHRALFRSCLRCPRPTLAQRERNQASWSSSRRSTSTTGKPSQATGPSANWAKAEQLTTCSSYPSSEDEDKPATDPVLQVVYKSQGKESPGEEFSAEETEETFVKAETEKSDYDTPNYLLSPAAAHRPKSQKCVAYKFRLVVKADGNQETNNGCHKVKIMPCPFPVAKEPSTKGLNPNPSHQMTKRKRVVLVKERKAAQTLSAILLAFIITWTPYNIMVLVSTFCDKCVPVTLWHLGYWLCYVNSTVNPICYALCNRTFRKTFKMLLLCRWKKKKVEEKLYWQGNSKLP
In kind it is cell membranes, Membrane. Conditions: cho-k1.

A short description of data set [6]: DRUGMATRIX: Interleukin IL-1 radioligand binding (ligand: [125I] interleukin 1beta). In kind it is cell membranes, Membrane. Conditions: nih3t3; Not Active = under 50% inhibition at 10 µM.
Data set [7] can be described thus: DRUGMATRIX: Glutamate, Kainate radioligand binding (ligand: [3H] Kainic acid). In kind it is cell membranes, Rattus norvegicus, Wistar, Brain, Membrane. The settings on record: Not Active = under 50% inhibition at 10 µM.
Another data set concerns the target Melanocortin receptor 5 (Homo sapiens, UniProt P33032). In kind it is cell membranes, HEK293, Membrane. Conditions: hek293. Further: in other assays of this panel Not Active means under 50% inhibition at 10 µM.

Chain of Cytochrome P450 2D6 (P10635 whole entry): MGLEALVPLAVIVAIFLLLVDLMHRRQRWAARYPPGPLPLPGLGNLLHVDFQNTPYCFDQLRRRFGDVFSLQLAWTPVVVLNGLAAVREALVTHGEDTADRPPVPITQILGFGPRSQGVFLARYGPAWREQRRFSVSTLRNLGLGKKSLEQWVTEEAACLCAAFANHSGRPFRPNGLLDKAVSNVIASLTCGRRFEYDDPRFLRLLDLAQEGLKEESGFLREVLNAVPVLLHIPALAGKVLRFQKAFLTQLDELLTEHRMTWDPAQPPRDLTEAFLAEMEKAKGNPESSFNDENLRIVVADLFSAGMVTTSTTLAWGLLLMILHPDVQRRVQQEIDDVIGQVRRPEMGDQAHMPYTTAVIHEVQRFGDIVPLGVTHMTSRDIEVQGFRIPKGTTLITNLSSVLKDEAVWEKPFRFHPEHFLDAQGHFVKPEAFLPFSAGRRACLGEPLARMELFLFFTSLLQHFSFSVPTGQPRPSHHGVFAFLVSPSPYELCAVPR
Chain of Melanocortin receptor 5 (P33032 whole entry): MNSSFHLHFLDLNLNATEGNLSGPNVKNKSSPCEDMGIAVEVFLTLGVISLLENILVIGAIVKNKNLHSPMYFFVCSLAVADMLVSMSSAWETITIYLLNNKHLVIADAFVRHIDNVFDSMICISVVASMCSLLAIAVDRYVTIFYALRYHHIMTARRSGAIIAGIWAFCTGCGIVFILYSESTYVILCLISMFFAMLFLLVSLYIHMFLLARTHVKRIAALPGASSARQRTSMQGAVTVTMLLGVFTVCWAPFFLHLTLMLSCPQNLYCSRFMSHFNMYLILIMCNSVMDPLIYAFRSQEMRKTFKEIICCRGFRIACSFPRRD

Regarding STANNOUS FLUORIDE, the IC50 result (in [1]; in data set [2]; in data set [3]; in data set [4]; against Cytochrome P450 2D6; in data set [5]) was “Not Active” throughout. The IC50 entry (in data set [6]; in [7]; at Melanocortin receptor 5) was “Not Active” in each case. The Ki entry (in [1]; in [2]; in data set [3]; in data set [4]; on Cytochrome P450 2D6; in data set [5]) was “Not Active” throughout. For the same sequence, the Ki result (in data set [6]; in data set [7]; on Melanocortin receptor 5) was “Not Active” in each case.
On to THIMEROSAL, for which the IC50 result was “Not Active” in data set [1]; “Not Active” in data set [2]; “Not Active” in data set [3]; “Not Active” in data set [4]; 3000 nM at Cytochrome P450 2D6; “Not Active” in [5]. The IC50 entry (in [6]; in data set [7]; against Melanocortin receptor 5) was “Not Active” each time. Moreover, the Ki result in data set [1], in [2], in data set [3], in data set [4], in data set [5] and in [6] was “Not Active” in each case. The Ki result (in data set [7]; on Melanocortin receptor 5) was “Not Active” throughout.

These data come from ChEMBL document CHEMBL1909046, “DrugMatrix in vitro pharmacology data”.
